Organism: Rattus norvegicus
Experiment: DrugMatrix - Regimen: Daily Repeat
Type: toxicity, organism-based, Sprague-Dawley
Set-up: regimen Daily Repeat, gender Male, age 6-8 weeks
Settings: in vivo, po, route oral GAVAGE, vehicle .5 % CMC; for ABSOLUTE BASOPHIL / ABSOLUTE EOSINOPHIL / ABSOLUTE LYMPHOCYTE / ABSOLUTE MONOCYTE / ABSOLUTE SEGMENTED NEUTROPHIL / BASOPHIL / EOSINOPHIL / ERYTHROCYTE COUNT / HEMATOCRIT / HEMOGLOBIN / LEUKOCYTE COUNT / LYMPHOCYTE / MEAN CORPUSCULAR HEMOGLOBIN / MEAN CORPUSCULAR HEMOGLOBIN CONCENTRATION / MEAN CORPUSCULAR VOLUME / MONOCYTE / NEUTROPHIL / NUCLEATED RED BLOOD CELLS / PLATELET COUNT: tissue Blood; for ALANINE AMINOTRANSFERASE / ALBUMIN / ALKALINE PHOSPHATASE / ASPARTATE AMINOTRANSFERASE / BLOOD UREA NITROGEN / CARBON DIOXIDE / CHLORIDE / CHOLESTEROL / CREATINE PHOSPHOKINASE / CREATININE / GLUCOSE / LACTATE DEHYDROGENASE / LIPASE / PHOSPHORUS / POTASSIUM / SODIUM / TOTAL BILIRUBIN / TOTAL PROTEIN / URIC ACID: tissue Plasma
[1] = 19 mg/kg, 120 h, dose level High, time 5 day
[2] = […], 72 h, dose 6.6 mg/Kg, dose level Low, time 3 day
[3] = […], 120 h, dose 6.6 mg/Kg, dose level Low, time 5 day

## NCC(CC(=O)O)c1ccc(Cl)cc1 (centres undefined) [BACLOFEN]
[1]
  ABSOLUTE BASOPHIL: 0 CELLS/uL
  ABSOLUTE EOSINOPHIL: 0 CELLS/uL
  ABSOLUTE LYMPHOCYTE: 14854 CELLS/uL
  ABSOLUTE MONOCYTE: 102.67 CELLS/uL
  ABSOLUTE SEGMENTED NEUTROPHIL: 1043.33 CELLS/uL
  BASOPHIL: 0%
  EOSINOPHIL: 0%
  ERYTHROCYTE COUNT: 5.41 x10E6/uL
  HEMATOCRIT: 33.6%
  HEMOGLOBIN: 13.33 G/DL
  LEUKOCYTE COUNT: 16 x10E3/uL
  LYMPHOCYTE: 93%
  MEAN CORPUSCULAR HEMOGLOBIN: 24.7 pg
  MEAN CORPUSCULAR HEMOGLOBIN CONCENTRATION: 39.73 G/DL
  MEAN CORPUSCULAR VOLUME: 62.17 fL
  MONOCYTE: 0.67%
  NEUTROPHIL: 6.33%
  NUCLEATED RED BLOOD CELLS: 0 /100WBC
  PLATELET COUNT: 1022.33 x10E3/uL
  ALANINE AMINOTRANSFERASE: 54.67 u/L
  ALBUMIN: 4.1 G/DL
  ALKALINE PHOSPHATASE: 431.33 u/L
  ASPARTATE AMINOTRANSFERASE: 87.67 u/L
  BLOOD UREA NITROGEN: 19.67 mg/dL
  CARBON DIOXIDE: 26.33 mmol/L
  CHLORIDE: 103.67 MEQ/L
  CHOLESTEROL: 59.33 mg/dL
  CREATINE PHOSPHOKINASE: 272.67 u/L
  CREATININE: 0.23 mg/dL
  GLUCOSE: 160 mg/dL
  LACTATE DEHYDROGENASE: 391 u/L
  LIPASE: 9 u/L
  PHOSPHORUS: 11.13 mg/dL
  POTASSIUM: 6.54 MEQ/L
  SODIUM: 147.27 MEQ/L
  TOTAL BILIRUBIN: 0.3 mg/dL
  TOTAL PROTEIN: 5.87 G/DL
  URIC ACID: 1.4 mg/dL
[2]
  ABSOLUTE BASOPHIL: 0 CELLS/uL
  ABSOLUTE EOSINOPHIL: 196 CELLS/uL
  ABSOLUTE LYMPHOCYTE: 14434 CELLS/uL
  ABSOLUTE MONOCYTE: 264.67 CELLS/uL
  ABSOLUTE SEGMENTED NEUTROPHIL: 1038.67 CELLS/uL
  BASOPHIL: 0%
  EOSINOPHIL: 1%
  ERYTHROCYTE COUNT: 5.8 x10E6/uL
  HEMATOCRIT: 36.17%
  HEMOGLOBIN: 13.87 G/DL
  LEUKOCYTE COUNT: 15.93 x10E3/uL
  LYMPHOCYTE: 90.67%
  MEAN CORPUSCULAR HEMOGLOBIN: 24.03 pg
  MEAN CORPUSCULAR HEMOGLOBIN CONCENTRATION: 38.37 G/DL
  MEAN CORPUSCULAR VOLUME: 62.57 fL
  MONOCYTE: 1.67%
  NEUTROPHIL: 6.67%
  NUCLEATED RED BLOOD CELLS: 0 /100WBC
  PLATELET COUNT: 1144 x10E3/uL
  ALANINE AMINOTRANSFERASE: 51.67 u/L
  ALBUMIN: 4.27 G/DL
  ALKALINE PHOSPHATASE: 456 u/L
  ASPARTATE AMINOTRANSFERASE: 81.33 u/L
  BLOOD UREA NITROGEN: 18.33 mg/dL
  CARBON DIOXIDE: 27 mmol/L
  CHLORIDE: 100 MEQ/L
  CHOLESTEROL: 67 mg/dL
  CREATINE PHOSPHOKINASE: 351.67 u/L
  CREATININE: 0.23 mg/dL
  GLUCOSE: 153.33 mg/dL
  LACTATE DEHYDROGENASE: 367.67 u/L
  LIPASE: 10.67 u/L
  PHOSPHORUS: 12.53 mg/dL
  POTASSIUM: 7.1 MEQ/L
  SODIUM: 142.1 MEQ/L
  TOTAL BILIRUBIN: 0.2 mg/dL
  TOTAL PROTEIN: 5.93 G/DL
  URIC ACID: 1.63 mg/dL
[3]
  ABSOLUTE BASOPHIL: 0 CELLS/uL
  ABSOLUTE EOSINOPHIL: 160.33 CELLS/uL
  ABSOLUTE LYMPHOCYTE: 14603.33 CELLS/uL
  ABSOLUTE MONOCYTE: 300.67 CELLS/uL
  ABSOLUTE SEGMENTED NEUTROPHIL: 1335.67 CELLS/uL
  BASOPHIL: 0%
  EOSINOPHIL: 1%
  ERYTHROCYTE COUNT: 5.47 x10E6/uL
  HEMATOCRIT: 35.43%
  HEMOGLOBIN: 13.57 G/DL
  LEUKOCYTE COUNT: 16.4 x10E3/uL
  LYMPHOCYTE: 89%
  MEAN CORPUSCULAR HEMOGLOBIN: 24.8 pg
  MEAN CORPUSCULAR HEMOGLOBIN CONCENTRATION: 38.3 G/DL
  MEAN CORPUSCULAR VOLUME: 64.8 fL
  MONOCYTE: 1.67%
  NEUTROPHIL: 8.33%
  NUCLEATED RED BLOOD CELLS: 0 /100WBC
  PLATELET COUNT: 1121.33 x10E3/uL
  ALANINE AMINOTRANSFERASE: 51 u/L
  ALBUMIN: 4.23 G/DL
  ALKALINE PHOSPHATASE: 364.33 u/L
  ASPARTATE AMINOTRANSFERASE: 94.33 u/L
  BLOOD UREA NITROGEN: 19 mg/dL
  CARBON DIOXIDE: 28.33 mmol/L
  CHLORIDE: 100.67 MEQ/L
  CHOLESTEROL: 71 mg/dL
  CREATINE PHOSPHOKINASE: 448 u/L
  CREATININE: 0.15 mg/dL
  GLUCOSE: 140.33 mg/dL
  LACTATE DEHYDROGENASE: 505 u/L
  LIPASE: 10 u/L
  PHOSPHORUS: 11.6 mg/dL
  POTASSIUM: 6.27 MEQ/L
  SODIUM: 143.57 MEQ/L
  TOTAL BILIRUBIN: 0.23 mg/dL
  TOTAL PROTEIN: 6.07 G/DL
  URIC ACID: 1.37 mg/dL

— ChEMBL document CHEMBL3885881, “DrugMatrix”
